How the values were obtained:
[1] = Inhibition of PI3Kbeta in human washed platelets assessed as suppression of ADP-induced platelet aggregation preincubated for 5 mins followed by ADP stimulation after 10 mins by light transmission aggregometric analysis
[2] = Inhibition of PI3Kbeta in human platelet-rich plasma assessed as suppression of ADP-induced platelet aggregation preincubated for 5 mins followed by ADP stimulation after 10 mins by light transmission aggregometric analysis
[3] = target: Phosphatidylinositol 4,5-bisphosphate 3-kinase catalytic subunit beta isoform (Homo sapiens, UniProt P42338); assay: Inhibition of PI3Kbeta in human washed platelets assessed as suppression of ADP-induced platelet aggregation preincubated for 5 mins followed by ADP stimulation after 10 mins by light transmission aggregometric analysis
Chain of Phosphatidylinositol 4,5-bisphosphate 3-kinase catalytic subunit beta isoform (P42338 whole entry, canonical isoform): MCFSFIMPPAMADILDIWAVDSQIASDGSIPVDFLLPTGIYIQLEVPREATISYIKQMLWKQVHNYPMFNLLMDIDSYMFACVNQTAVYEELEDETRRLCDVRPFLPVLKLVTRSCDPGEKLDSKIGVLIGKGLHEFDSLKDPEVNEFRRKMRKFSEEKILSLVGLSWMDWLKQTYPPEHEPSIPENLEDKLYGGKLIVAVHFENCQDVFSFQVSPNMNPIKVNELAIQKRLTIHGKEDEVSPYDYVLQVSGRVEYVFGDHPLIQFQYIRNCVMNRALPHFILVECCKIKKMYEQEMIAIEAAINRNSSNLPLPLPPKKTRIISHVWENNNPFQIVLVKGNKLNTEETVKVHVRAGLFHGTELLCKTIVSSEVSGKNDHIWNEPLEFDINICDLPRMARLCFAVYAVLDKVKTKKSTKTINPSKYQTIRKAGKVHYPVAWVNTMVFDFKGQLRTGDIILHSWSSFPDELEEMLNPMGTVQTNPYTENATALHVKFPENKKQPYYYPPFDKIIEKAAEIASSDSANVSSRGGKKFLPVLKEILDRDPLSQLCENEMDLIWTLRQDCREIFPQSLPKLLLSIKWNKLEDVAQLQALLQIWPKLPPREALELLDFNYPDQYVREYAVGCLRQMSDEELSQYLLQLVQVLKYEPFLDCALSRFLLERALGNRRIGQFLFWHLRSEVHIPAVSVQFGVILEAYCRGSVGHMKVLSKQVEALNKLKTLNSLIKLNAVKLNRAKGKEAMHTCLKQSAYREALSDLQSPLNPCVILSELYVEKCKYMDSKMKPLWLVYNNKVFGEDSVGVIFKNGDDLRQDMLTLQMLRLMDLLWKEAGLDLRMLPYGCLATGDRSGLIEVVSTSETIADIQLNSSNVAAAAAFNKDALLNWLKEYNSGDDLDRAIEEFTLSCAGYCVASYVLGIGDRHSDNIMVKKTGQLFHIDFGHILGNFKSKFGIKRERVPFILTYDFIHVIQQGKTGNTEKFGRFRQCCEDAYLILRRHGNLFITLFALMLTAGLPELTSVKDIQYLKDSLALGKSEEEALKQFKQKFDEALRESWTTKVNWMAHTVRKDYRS

| IC50 [1] | IC50 [2] | IC50 [3] | Structure (SMILES) |
| --- | --- | --- | --- |
| 30 nM |  |  | O=C([C@H]1CCCN1)N1CCN(c2nc(N3CCOCC3)nc(-n3c(C(F)F)nc4ccccc43)n2)CC1 |
|  | 2800 nM | 30 nM | N[C@@H](Cc1ccccc1)C(=O)N1CCN(c2nc(N3CCOCC3)nc(-n3c(C(F)F)nc4ccccc43)n2)CC1 |
| 30 nM |  |  | O=C([C@@H]1CCCN1)N1CCN(c2nc(N3CCOCC3)nc(-n3c(C(F)F)nc4ccccc43)n2)CC1 |

Reference: BindingDB's records for doi:10.1016/j.ejmech.2016.06.010 (Monash University, 2016)
